Earlier results on 1 compound are cited in patent US6103262A, “Modified-release metronidazole compositions and methods for making and using same” (priority 1994, dated 2000).

Series [1] deals with Trichomonas vaginalis, Entamoeba histolytica, Helicobacter species, anaerobic bacteria.
The conditions of series [2]: in vivo.
Series [3] deals with trichomoniasis or bacterial vaginosis.

On to `Cc1ncc([N+](=O)[O-])n1CCO` [metronidazole, 1-(2-hydroxyethyl)-2-methyl-5-nitroimidazole], for which the “aqueous solubility (in words)” value was “aqueous soluble”. In addition, the killing of microorganisms entry in series [1] is listed as “effective for killing”. Also, in series [2], the “absorption by the bloodstream” value is listed as “rapidly absorbed” and the “clearance from the bloodstream” value is given as “rapidly cleared”. In addition, in series [3] (in vivo), the side effects result was “significant and undesirable side effects such as nausea”. The “occurrence and severity of side effects, lower dosages” value in series [3] (in vivo, po) was “significantly reduce the occurrence and severity of side effects”. Also, the clinical efficacy entry in series [3] (single large dose (~2 grams) as a bolus) is given as “clinically effective”.
